Common to all, as to type: cell-based, mouse
Test [1] has as its system MEFs. Briefly: qPCR of cardiac genes in reprogramming MEFs. To be noted: reprogramming MEFs treated with A83-01 for 5 days, day 7. The protocol:
(§1) Cells were harvested in TRizol reagent (Ambion) for RNA isolation. RNA was extracted with the RNeasy® Plus Universal Mini Kit (Qiagen). RT-PCR was performed using the Superscript III first-strand synthesis system (Invitrogen). qPCR was performed using the SYBR® Green PCR master mix (Applied Biosystems) or StepOne™ Real-Time PCR Systems (Applied Biosystems). Primers are listed in Supplementary Table 1. Ryr2 (Mm00465877_m1) and Myh7 (Mm01319006_91) are Taqman probes (Life technologies).
On the technique in general: In qPCR the cycle at which signal appears reflects the starting amount.

The subject of test [2] is adult tail-tip fibroblasts (ATTFs). In words: Counting of spontaneously beating cells in adult tail-tip fibroblasts. To be noted: GHMT2m-ATTFs treated with A83-01 (0.5 μM). The protocol: (§2) Hearts or skinned tails from adult C57BL6 mice were cut into small pieces with ˜1 mm diameter. The biopsies were seeded on a 10 cm culture dish and incubated with 10 mL of growth medium (DMEM/Hi glucose (Hyclone), 10% FBS (Gemini:), 1.1% Penicillin-Streptomycin (Gibco) and 1.1% GlutaMAX supplement (Gibco)) at 37° C. with 5% CO2. TTFs migrated out of the biopsies after 3 days. The media were changed every other day. Once the TTFs have reached a 70-80% confluence, the cells were harvested and stored for future use.
(§3) Fibroblasts were plated on tissue culture dishes pre-coated with SureCoat (Cellutron) at a density of ˜40 cells/mm^2 before transduction. The fibroblast growth medium was replaced with freshly made viral mixture containing polybrene (Sigma). Twenty-four hours later, fibroblasts were infected again with viral mixture containing polybrene. Twenty fours later, the viral medium was replaced with induction medium, composed of DMEM/199 (4:1) (Gibco), 10% FBS (Gemini), 5% horse serum(Gemini), antibiotics (Gibco), 1× non-essential amino acids (Gibco), 1× essential amino acids (Gibco), 1× B-27 (Gibco), 1× insulin-selenium-transferin (Gibco), 1× vitamin mixture (Gibco), and 1× sodium pyruvate (Gibco). Medium was changed every two-three days until cells were examined.
Cells in 60 mm dishes were examined under an EVOS® FL Color imaging system (Life Technologies) at 25° C. Beating cells were counted at a field with an area of 0.89 mm^2. Ten to fifteen fields in each dish were randomly chosen.

Test [3] has as its system MEFs. In words: Immunocytochemistry for cTnT and α-actinin in infected MEFs. To be noted: day 14, without or with A83-01. The protocol:
as §3
Cells were fixed in 2% PFA for 15 min on ice then washed with DPBS (Gibco) three times at RT. The cells were permeabilized in 0.5% Triton X-100 (made in PBS) for 20 min at RT. After washing the cells with DPBS (Gibco), cells were incubated with the primary antibody against α-actinin (Sigma A7811, 1:300), Connexin 43 (Sigma, C6219, 1:500), Troponin T (Thermo Scientific MS-245-P, 1:500), α-SMA (Santa Cruz Biotechnology, SC-32251, 1:800), Myl2 (Proteintech, 10906-1-AP, 1:200), or Myl7 (Proteintech, 17283-1-AP, 1:200) in 10% FBS(Gemini) in DPBS for 1 hour at RT. Cells were wash with DPBS three times, 5 min each. Cell were incubated with the secondary antibody (Alexa Fluor 555 Molecular Probes A21422, 1:1000) and Hoechest (Molecular Probes 33342, 1:5000) for 30 mins at RT.

The test system of test [4] is adult tail-tip fibroblasts (ATTFs). Briefly: Immunocytochemistry for cTnT and α-actinin in adult tail-tip fibroblasts. To be noted: GHMT2m-infected ATTFs; DMSO or A83-01 for 2 weeks. The protocol: as §2, §3
(§4) Cells were fixed in 2% PFA for 15 min on ice then washed with DPBS (Gibco) three times at RT. […]

In test [5] the test system is adult cardiac fibroblasts (ACFs). Briefly: qPCR of cardiac genes in adult cardiac fibroblasts. The settings on record: infected ACFs treated with A83-01 for 4 weeks. The protocol:
as §2, §1

Test [6] concerns MEFs. Briefly: Intracellular staining for flow cytometry (cTnT, Myc) in retrovirus-infected MEFs. The settings on record: for cTnThigh fraction: day 7. The protocol:
C57BL6 pregnant mice at E13 were order from Charles River's laboratory. Embryos at E14.5 were harvested and their internal organs and head were removed. The body below the liver was minced using blade to fine pieces. Minced embryos were incubated with 2 ml of 0.25% trypsinIl mM EDTA, Phenol Red (Gibco) for 40 mins at 37° C. with 5% CO2. Cells were suspended in 25 ml of growth medium (DMEM/Hi glucose (Hyclone) 10% FBS (Gemini), 1.1% Penicillin-Streptomycin (Gibco) and 1.1% GlutaMAX supplement (Gibco)) and then plated on a 15 cm dish. In 24 hours, the media was aspirated and new 25 ml of growth medium was added. In 72 hours, MEFs were harvested and stored for future use.
as §3
Adherent fibroblasts were washed with DPBS (Gibco). Cells were detached from culture dish by treatment with 0.25% Trypsin/EDTA (Gibco) for 3 min at 37° C. Cells were then washed with 4 ml of 5% FBS (Gemini) in DPBS filtered through a cell strainer and centrifuge at 1200 rpm×6 mins. Cells were washed with 500 ul of 1% BSA in DPBS. Cells were fixed with BD Cytofix/Cytoperm™ solution in 0.2 ml/1 million cells in 1.5 ml eppendorf tube for 20 min on ice. Cells were washed with 1 ml of BD perm/wash buffer and Centrifuged for 6 min at 1200 rpm. The supernatant was discarded; cells were washed again with 1 ml of BD Perm/wash buffer and left overnight at 4° C. The next day, Cells were centrifuged for 6 min at 1200 rpm, the supernatant discarded and 100 μl of Blocking buffer made with 5% goat, donkey serum (Sigma: G9023 and D9663) in Perm/wash buffer was added to the cells and incubated for 30 min at RT. A primary antibody: Mouse Troponin T (cTnT) antibody (Thermo Scientific, ms-295-p, 1:200), mouse anti-C-Myc antibody (BD Pharmingen, 551102, 1:200) in 100 μl BD Perm/Wash buffer was added to the cells and incubated for 1 hr at RT. One ml cold BD Perm/wash buffer was added to the cells and centrifuged for 6 min at 1200 rpm. […] Cells were re-suspended in 300 ul of 1% BSA/DPBS and then analyzed using FACS Caliber (BD Sciences) and FlowJo software.
On the technique in general: A flow cytometer gives signals particle by particle.

Test [7] concerns adult cardiac fibroblasts (ACFs). In words: Immunocytochemistry for cTnT and α-actinin in adult cardiac fibroblasts. The settings on record: by 4 weeks, without or with A83-01. The protocol: as §2, §3, §4

For `Cc1cccc(-c2nn(C(=S)Nc3ccccc3)cc2-c2ccnc3ccccc23)n1` [A83-01], the “program of cardiomyocyte gene expression” value in the test on MEFs [1] is given as “enhanced”. In addition, in test [2], the “time by which spontaneously beating cells appeared” value is given as 2-3 weeks. In test [2] (by 4 weeks), the spontaneously contracting cells entry was “about 4%”. For the same compound, the “spontaneously contracting cells per cm^2” value in test [2] (by 4 weeks) is recorded as “approximately 300 cells per cm^2”. The “proportion of cTnT+ cells (immunostaining)” value is given as about 67% with MEFs [3] (GHMT2m-cultures of MEFs) and “approximately 58%” in the test on MEFs [3] (GHMT-cultures of MEFs). Besides, the “proportion of α-actinin+ cells (immunostaining)” value in the test on MEFs [3] (GHMT2m-cultures of MEFs) is given as about 64%; in the test on MEFs [3] (GHMT-cultures of MEFs), “approximately 57%”. The “adult TTFs positive for cTnT and α-actinin” value in test [4] is on record as “approximately 30%”. The “expression of other cardiac genes, Actc1, Myh6 and Ryr2” value in test [5] is reported as “enhanced”. The cTnThigh fraction entry in the test on MEFs [6] (GHMT2m-infected MEFs, alone or treated with A83-01 (0.5 μM, day 3 to day 7)) is recorded as “approximately 45.6%”; with MEFs [6] (GHMT-infected MEFs, alone or treated with TGF-β1 (10 ng/ml) or A83-01 (0.5 μM, day 3 to day 7)) it was “approximately 30.7%”. The “induction of cTnT+ cells by the small molecule alone” value with MEFs [6] (MEFs without reprogramming factors, flow cytometry) is listed as “did not induce cTnT+ cells”. Also, the “ACFs positive for cTnT” value was “approximately 18%” in test [7] (GHMT2m-infected ACFs) and “approximately 10%” in test [7] (GHMT-infected ACFs).
